Measurements as given in patent US20240398771A1, “TREATMENT OF SCLERODERMA AND RAYNAUD'S SYNDROME” (Aisa Pharma, Inc., priority 2023, published 2024).

Tests used:
participants with SSc-RP [1] = assay: Average severity (0-10) of weekly RP attacks, all attacks; type: in vivo, human; details: excluding outliers, ITT Part A
Text: (§1) The relevant metrics measured by this tool daily are: • Study medication • SSc-RP symptoms (Reporting an attack including duration of attack) • Severity of the attack considering all symptoms of the attack e.g. tingling, numbness, pain, color changes (VAS 0-10 cm scale) • Participant's location at the time of the attack (inside home/outside home) • Selecting symptoms experienced during the attack (tingling, numbness, pain, color changes, other) • Pain rating during the attack (11-point Likert scale) • The RCS based on how much difficulty participants had with Raynaud's today, how many attacks the participant had, and how long they lasted. Participants will also be asked to consider how much pain, numbness, or other symptoms the Raynaud's caused in fingers (including painful sores), and how much the Raynaud's alone affected the use of hands today (VAS 0-10 cm scale).
The absolute change in average severity of weekly RP attacks (VAS 0-10 cm scale) from baseline to the end of each Dosing Period was and will be a secondary outcome variable. The sponsor-developed participant-informed diary will be used to record data. Average severity of weekly RP attacks is defined as the total severity scores of RP attacks divided by total number of RP attacks within the last 7 days of each dosing period. Total severity scores of RP attacks during the last 7 days of screening period divided by the total number of RP attacks will be used as baseline for the analysis of all periods. The variable will be calculated similar to frequency data as before.

participants with SSc-RP [2] = assay: Frequency of weekly symptomatic RP attacks (patient diary), Phase 2a Part A; type: in vivo, human; details: for Weekly Symptomatic RP Attacks, Max / Weekly Symptomatic RP Attacks, Mean (SD) / Weekly Symptomatic RP Attacks, Min / Weekly Symptomatic RP Attacks, Q1 / Weekly Symptomatic RP Attacks, Q3: last 7 days of dosing period
Description: Part A—Double-blind, Placebo-controlled, Parallel-group, Dose selection, will assess the safety and efficacy of two doses of cilnidipine (10 mg and 20 mg), alone and in combination with tadalafil. A total of 36 participants will be randomized to one of six pre-specified treatment arms. See Example 3 for data obtained in this phase of the study thus far, on 11 participants.
Please refer to FIG. 1 for treatment arms in Part A of the study. Dosing lasted or will last for 12 (±2) days in which participants self-administered or will self-administer daily doses of assigned treatment in the morning. Each participant took or will take one capsule and one tablet to blind the active therapy being received.
as §1
Percent change from baseline evaluation for frequency of weekly RP attacks were or will be used as the primary efficacy variable. The sponsor-developed participant-informed diary will be used to record data. Frequency of weekly RP attacks is defined as the total number of RP attacks divided by the number of days with available diary data within the last 7 days of each dosing period then multiplied by 7. Total number of RP attacks during the last 7 days of screening period divided by the number of days with available data then multiplied by 7 will be used as baseline for the analysis of all periods.
Percentage change={(weekly RP attacks for the last 7 days of each dosing period−Baseline weekly RP attacks)/Baseline weekly RP attacks}*100%.
Absolute change=weekly RP attacks for the last 7 days of each dosing period−Baseline weekly RP attacks
Percent change from baseline evaluation for frequency of weekly RP attacks was and will be the primary efficacy endpoint. Frequency of weekly RP attacks is defined as the total number of RP attacks divided by the number of days with available diary data within the last 7 days of each dosing period then multiplied by 7. Total number of RP attacks during the last 7 days of screening period divided by the number of days with available data then multiplied by 7 will be used as baseline for the analysis of all periods.
The following data was actually obtained in accordance with the protocol and plan delineated in Examples 1 and 2. The accompanying data involved 11 patients out of the planned 76 patient study. The study was done in patients with scleroderma (systemic sclerosis) who had relatively frequent Raynaud symptoms as they needed to average at least one attack per day during a screening period of up to two weeks. In this first phase of this double-blind placebo-controlled, prospective randomized study, patients were treated in parallel and after meeting study criteria were randomized to receive either placebo, cilnidipine 10 mg daily, cilnidipine 20 mg daily, tadalafil 5 mg daily, cilnidipine 10 mg plus 5 mg of tadalafil, or cilnidipine 20 mg plus 5 mg of tadalafil.

[3] = Cilnidipine 10 mg, baseline RCS subgroup 1 of 2
[4] = Cilnidipine 20 mg, baseline RCS subgroup 1 of 2
[5] = Pooled Cilnidipine 10 mg and Cilnidipine 10 mg + Tadalafil 5 mg, baseline RCS subgroup 1 of 2
[6] = Pooled Cilnidipine 10 mg and Cilnidipine 10 mg + Tadalafil 5 mg, baseline RCS subgroup 2 of 2
[7] = Pooled Cilnidipine 20 mg and Cilnidipine 20 mg + Tadalafil 5 mg, baseline RCS subgroup 1 of 2
[8] = Pooled Cilnidipine 20 mg and Cilnidipine 20 mg + Tadalafil 5 mg, baseline RCS subgroup 2 of 2
[9] = Pooled Cilnidipine, baseline RCS subgroup 1 of 2
[10] = Table A-1, ITT Part A, listed as Cilnidipine 10 mg
[11] = Table A-1, ITT Part A, listed as Cilnidipine 20 mg
[12] = Table A-1, ITT Part A, listed as Pooled Cilnidipine
[13] = Table A-1, ITT Part A, last 7 days of dosing vs last 7 days of screening, listed as Cilnidipine 10 mg
[14] = Table A-1, ITT Part A, last 7 days of dosing vs last 7 days of screening, listed as Cilnidipine 20 mg

Question: What does the source list for COCCOC(=O)C1=C(C)NC(C)=C(C(=O)OC/C=C/c2ccccc2)C1c1cccc([N+](=O)[O-])c1 (centres unmarked) [Cilnidipine, 1,4-dihydro-2,6-dimethyl,4-(3-nitrophenyl)-3,5-pyridinedicarboxylic acid 2-methoxyethyl (2 E)-3-phenyl-2-propenyl ester]?
Answer: Average Severity of Weekly RP Attacks (All Attacks): Baseline, Mean (participants with SSc-RP [1]; [3]): 3.03; Average Severity of Weekly RP Attacks (All Attacks): Baseline, Median (participants with SSc-RP [1]; [3]): 3.03; Average Severity of Weekly RP Attacks (All Attacks): Average Severity, Mean (participants with SSc-RP [1]; [4]): 2.30; Average Severity of Weekly RP Attacks (All Attacks): Average Severity, Median (participants with SSc-RP [1]; [4]): 2.30; Average Severity of Weekly RP Attacks (All Attacks): Baseline, Mean (participants with SSc-RP [1]; [4]): 3.37; Average Severity of Weekly RP Attacks (All Attacks): Baseline, Median (participants with SSc-RP [1]; [4]): 3.37; Average Severity of Weekly RP Attacks (All Attacks): Average Severity, Mean (participants with SSc-RP [1]; [5]): 2.97; Average Severity of Weekly RP Attacks (All Attacks): Average Severity, Median (participants with SSc-RP [1]; [5]): 2.97; Average Severity of Weekly RP Attacks (All Attacks): Baseline, Mean (participants with SSc-RP [1]; [5]): 4.33; Average Severity of Weekly RP Attacks (All Attacks): Baseline, Median (participants with SSc-RP [1]; [5]): 4.33; Average Severity of Weekly RP Attacks (All Attacks): Average Severity, Mean (participants with SSc-RP [1]; [6]): 4.90; Average Severity of Weekly RP Attacks (All Attacks): Average Severity, Median (participants with SSc-RP [1]; [6]): 4.90; Average Severity of Weekly RP Attacks (All Attacks): Baseline, Mean (participants with SSc-RP [1]; [6]): 6.22; Average Severity of Weekly RP Attacks (All Attacks): Baseline, Median (participants with SSc-RP [1]; [6]): 6.22; Average Severity of Weekly RP Attacks (All Attacks): Average Severity, Mean (participants with SSc-RP [1]; [7]): 2.78; Average Severity of Weekly RP Attacks (All Attacks): Average Severity, Median (participants with SSc-RP [1]; [7]): 2.40; Average Severity of Weekly RP Attacks (All Attacks): Baseline, Median (participants with SSc-RP [1]; [7]): 4.12; Average Severity of Weekly RP Attacks (All Attacks): Baseline, Mean (participants with SSc-RP [1]; [8]): 6.59; Average Severity of Weekly RP Attacks (All Attacks): Baseline, Median (participants with SSc-RP [1]; [8]): 6.59; Average Severity of Weekly RP Attacks (All Attacks): Average Severity, Median (participants with SSc-RP [1]; [9]): 2.40; Average Severity of Weekly RP Attacks (All Attacks): Baseline, Mean (participants with SSc-RP [1]; [9]): 3.26; Average Severity of Weekly RP Attacks (All Attacks): Baseline, Median (participants with SSc-RP [1]; [9]): 3.03; weekly frequency of Raynaud attacks, direction of change (participants with SSc-RP [2]; Example 3, first 11 patients of Part A, vs baseline): decrease; Weekly Symptomatic RP Attacks, Max (participants with SSc-RP [2]; [10]): 14.0, 14.0; Weekly Symptomatic RP Attacks, Mean (SD) (participants with SSc-RP [2]; [10]): 14.00; Weekly Symptomatic RP Attacks, Min (participants with SSc-RP [2]; [10]): 14.0, 14.0; Weekly Symptomatic RP Attacks, Q1 (participants with SSc-RP [2]; [10]): 14.00, 14.00; Weekly Symptomatic RP Attacks, Q3 (participants with SSc-RP [2]; [10]): 14.00, 14.00; Weekly Symptomatic RP Attacks, Max (participants with SSc-RP [2]; [11]): 11.0; Weekly Symptomatic RP Attacks, Mean (SD) (participants with SSc-RP [2]; [11]): 8.00 (4.243); Weekly Symptomatic RP Attacks, Min (participants with SSc-RP [2]; [11]): 5.0; Weekly Symptomatic RP Attacks, Q1 (participants with SSc-RP [2]; [11]): 5.00; Weekly Symptomatic RP Attacks, Q3 (participants with SSc-RP [2]; [11]): 11.00; Weekly Symptomatic RP Attacks, Max (participants with SSc-RP [2]; [12]): 14.0; Weekly Symptomatic RP Attacks, Mean (SD) (participants with SSc-RP [2]; [12]): 10.00 (4.583); Weekly Symptomatic RP Attacks, Min (participants with SSc-RP [2]; [12]): 5.0; Weekly Symptomatic RP Attacks, Q1 (participants with SSc-RP [2]; [12]): 5.00; Weekly Symptomatic RP Attacks, Q3 (participants with SSc-RP [2]; [12]): 14.00; Weekly Symptomatic RP Attacks Percent Change from Baseline, Min (participants with SSc-RP [2]; Table A-1, ITT Part A, last 7 days of dosing vs last 7 days of screening): −33.3, −33.3%; Weekly Symptomatic RP Attacks Change from Baseline, Max (participants with SSc-RP [2]; [13]): −7.0, −7.0; Weekly Symptomatic RP Attacks Change from Baseline, Mean (SD) (participants with SSc-RP [2]; [13]): −7.00; Weekly Symptomatic RP Attacks Change from Baseline, Min (participants with SSc-RP [2]; [13]): −7.0, −7.0; Weekly Symptomatic RP Attacks Change from Baseline, Q1 (participants with SSc-RP [2]; [13]): −7.00, −7.00; Weekly Symptomatic RP Attacks Change from Baseline, Q3 (participants with SSc-RP [2]; [13]): −7.00, −7.00; Weekly Symptomatic RP Attacks Percent Change from Baseline, Max (participants with SSc-RP [2]; [13]): −33.3, −33.3%; Weekly Symptomatic RP Attacks Change from Baseline, Max (participants with SSc-RP [2]; [14]): −2.0; Weekly Symptomatic RP Attacks Change from Baseline, Mean (SD) (participants with SSc-RP [2]; [14]): −4.50 (3.536)
